Laboratory results reported in PubChem BioAssay AID651630 (Sanford-Burnham Center for Chemical Genomics, 2012).
Active and inactive are the calls of the source.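 The calls were made as follows: active = lipid-stain IC50 at or below a set limit, with nuclear-stain toxicity IC50 at least five times higher; inactive = the rest.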

How the values were obtained:
DAPI = assay: TAG lipid buildup inhibition with viability readout – cell-based, panel, Nile Red and DAPI fluorescence, H9c2, dose response (AID 651630); details: H9c2 cells, DAPI nuclear fluorescence (cytotoxicity counter-readout), oleic acid;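 also: cells exposed to compound overnight before fixation and staining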
TAG = assay: as above; details: H9c2 cells, Nile Red TAG fluorescence, oleic acid

SMILES | IC50 cytotoxicity (DAPI nuclear signal decrease) (DAPI; mean of runs) | IC50 cytotoxicity (DAPI nuclear signal decrease) (DAPI; run 1) [µM] | IC50 cytotoxicity (DAPI nuclear signal decrease) (DAPI; run 2) [µM] | IC50 (TAG; run 1) [µM] | IC50 (TAG; run 2) [µM] | IC50 (TAG; mean of runs)
O=C(c1ccoc1)N1CCN(c2cc(-c3ccncc3)nc3cc(-c4cccc(Cl)c4)nn23)CC1 | > 25 µM (inactive) | > 25 | > 25 | > 25 | 23.6 | 
N#CC1C=Cc2c(ccc3ccccc23)N1C(=O)c1ccccc1 (stereo not given) | > 25 µM (inactive) | > 25 | > 25 | > 25 | > 25 | > 25 µM (inactive)
CN(C)CCCN1c2ccccc2Sc2ccccc21 | > 25 µM (inactive) | > 25 | > 25 | > 25 | > 25 | > 25 µM (inactive)
CCOc1ccc2nc(NC(=O)CN3CCC(n4nnc5cc(F)ccc54)CC3)sc2c1 | > 25 µM (inactive) | > 25 | > 25 | 17.9 | 24.6 | 21.3 µM (inactive)
O=C(c1ccoc1)N1CCN(c2cc(-c3cccc(F)c3)nc3cc(-c4cccc(Cl)c4)nn23)CC1 | > 25 µM (inactive) | > 25 | > 25 | > 25 | > 25 | > 25 µM (inactive)
CCOC(=O)[C@H]1[C@H]2COc3ccc(C)cc3[C@@H]2N2C(=O)c3cc(Br)ccc3NC(=O)[C@@]12C | > 25 µM (inactive) | > 25 | > 25 | 22.2 | 21 | 21.6 µM (inactive)
CC(C)(C)NC(=O)C(c1ccc(-c2ccccc2)cc1)N(C[C@H]1CC[C@@H]([C@@H]2CC[C@H](CO)O2)O1)C(=O)c1ccc(-c2ccccc2)cc1 (stereo not given in full) | > 25 µM (inactive) | > 25 | > 25 | 12.3 | 15.3 | 13.8 µM
COc1ccccc1NC(=O)N1CCC(c2nc3cc(C)c(C)cc3[nH]2)CC1 | > 25 µM (inactive) | > 25 | > 25 | > 25 | > 25 | > 25 µM (inactive)
N#C/C(=C\c1cc([N+](=O)[O-])c(N2CCCCC2)cc1N1CCCCC1)c1nn(-c2ccccc2)c(N)c1C#N | > 25 µM (inactive) | > 25 | > 25 | > 25 | > 25 | > 25 µM (inactive)
NC(=O)c1cc(-c2ccccc2)nc(N2CCOCC2)n1 | > 25 µM (inactive) | > 25 | > 25 | > 25 | 20.3 | 
COCCCNC(=O)C(=O)Nc1ccc2c(c1)N(S(=O)(=O)c1cccs1)CCC2 | > 25 µM (inactive) | > 25 | > 25 | 7.64 | > 25 | 
O=C(Nc1ccc(-c2csc(Nc3cccc(C(F)(F)F)c3)n2)cc1)c1cc([N+](=O)[O-])cc(C(F)(F)F)c1 | > 25 µM (inactive) | > 25 | > 25 | 10.8 | 11.1 | 10.9 µM
CCCc1cc(C(=O)N/N=C/c2ccc(CC)s2)c2ccccc2n1 | > 25 µM (inactive) | > 25 | > 25 | > 25 | > 25 | > 25 µM (inactive)
CC(CC(=O)Nc1ccc2c(c1)c(=O)n(C)n2-c1ccc2ccccc2c1)C(F)(F)F (stereo not given) | > 25 µM (inactive) | > 25 | > 25 | > 25 | > 25 | > 25 µM (inactive)
O=C(Nc1ccc(/C=C/c2nc3ccccc3o2)cc1)c1c(F)cccc1F | > 25 µM (inactive) | > 25 | > 25 | 13.2 | 7.82 | 10.5 µM
CCCCc1ccc(N=N/C(C(=O)Nc2cc(OC)c(NC(C)=O)cc2OC)=C(/C)O)cc1 | > 25 µM (inactive) | > 25 | > 25 | 11.4 | 8.79 | 10.1 µM
Nc1c(C(=O)Nc2ccccc2)c2nc3ccccc3nc2n1-c1ccc(O)cc1 |  | > 25 | > 25 | 2.11 | 3.88 | 2.99 µM

SMILES | IC50 cytotoxicity (DAPI nuclear signal decrease) (DAPI; mean of runs) | IC50 cytotoxicity (DAPI nuclear signal decrease) (DAPI; run 1) [µM] | IC50 cytotoxicity (DAPI nuclear signal decrease) (DAPI; run 2) [µM] | IC50 (TAG; run 1) [µM] | IC50 (TAG; run 2) [µM] | IC50 (TAG; mean of runs)
CCOc1ccccc1NC(=O)CCC(=O)Nc1ccccc1OCC | > 25 µM (inactive) | > 25 | > 25 | > 25 | > 25 | > 25 µM (inactive)
COc1cc(NC(=O)c2csc(N)n2)cc(C(=O)Nc2cccc(C(F)(F)F)c2)c1 | > 25 µM (inactive) | > 25 | > 25 | 10.7 | 16.4 | 13.5 µM
CCN(C[C@H]1N[C@@](CC)(C(=O)OC)[C@H]2C(=O)N(Cc3ccccc3)C(=O)[C@@H]12)S(=O)(=O)c1ccc(C(C)(C)C)cc1 | > 25 µM (inactive) | > 25 | > 25 | 10.5 | 9.54 | 10 µM
C=CCC[C@@H](Cc1ccc(F)cc1)C(=O)OC[C@H](Cc1c[nH]c2ccccc12)NC(=O)[C@@H](CC=C)CC(=O)N(CCO)Cc1ccccc1 | > 25 µM (inactive) | > 25 | > 25 | 10.7 | 15.4 | 13.1 µM
Cn1nnnc1Sc1ncnc2scc(-c3cccc(S(C)(=O)=O)c3)c12 | > 25 µM (inactive) | > 25 | > 25 | > 25 | > 25 | > 25 µM (inactive)
CSc1ccc(C2=C/C(=C3/SC(=S)NC3=O)c3ccccc3O2)cc1 | > 25 µM (inactive) | > 25 | > 25 | 11.8 | 17.3 | 14.6 µM
O=C(Nc1ccccc1N1CCCCC1)c1ncoc1-c1ccc(F)cc1 | > 25 µM (inactive) | > 25 | > 25 | > 25 | > 25 | > 25 µM (inactive)
CNC(=O)c1ccc(-c2sc3nc(N4CCOCC4)c4c(c3c2N)CCCC4)o1 | > 25 µM (inactive) | > 25 | > 25 | 5.49 | 7.64 | 6.57 µM
COC(=O)[C@@]1(Cc2ccc(OC)cc2)[C@@H]2C(=CC(=O)[C@H]2CC(=O)C(=O)N2CCCC2)CN1C(=O)c1ccccc1 |  | 21 | > 25 | > 25 | > 25 | > 25 µM (inactive)
Cn1cc(/C=N/n2cnc3scc(-c4ccc(Cl)cc4)c3c2=O)c2ccccc21 |  | > 25 | > 25 | 5.8 | < 0.78 | 
Cc1nn(-c2ccc([N+](=O)[O-])cc2)c2c1C(c1ccc(OC(F)F)cc1)N1C(=N2)C(=O)Nc2ccccc21 (stereo not given) | > 25 µM (inactive) | > 25 | > 25 | 6.39 | 10.8 | 8.6 µM
CC(C)=CCC/C(C)=C/CNC(=O)C[C@H]1C[C@H](C(=O)N2CCCCC2)[C@@]2(CCc3ccccc3)c3[nH]c4cc(-c5ccco5)ccc4c3CCN2C1=O | > 25 µM (inactive) | > 25 | > 25 | 10.5 | 9.42 | 9.94 µM
Cc1cc(NC(=O)CSc2nc3ccccc3c(=O)n2C2CCCC2)no1 | > 25 µM (inactive) | > 25 | > 25 | 7.24 | 11.2 | 9.22 µM
CC(C)CC(N)c1csc(NC(=O)Nc2ccccc2Cc2ccccc2)n1 (stereo not given) |  | 20.4 | > 25 | > 25 | > 25 | > 25 µM (inactive)
N=c1n(CCO)c2ccccc2n1CCOc1ccc(Cl)cc1Cl | 22.3 µM (inactive) | 21.4 | 23.1 | > 25 | > 25 | > 25 µM (inactive)
COc1cc2c(cc1OC)C(C)N(C(=O)c1cc3c(C)cc(C)cc3[nH]1)CC2 (stereo not given) | > 25 µM (inactive) | > 25 | > 25 | 9.59 | 8.73 | 9.16 µM
